Reference: US20120022032A1, “CORTICOSTEROID COMPOSITIONS AND METHODS OF TREATMENTS THEREOF” (priority 2008, published 2012)
Values after ≈ are worked out from the molar mass of the structure shown. Read-outs that look alike come from different tables or passages of the source.

How the values were obtained:
Format in all cases: physicochemical
[1] = Microemulsion equilibrium solubility determination of mometasone furoate; conditions: for concentration of mometasone furoate achieved: 5% MIGLYOL; for solubility at 72 h: SOLUTOL HS-15-based microemulsion, aqueous with cosolvent or surfactant or cyclodextrin, thermodynamic from solid
Protocol: The equilibrium solubility of mometasone furoate is determined in SOLUTOL® HS-15-based microemulsion composition composed of 20% of SOLUTOL® HS-15 with varying amounts of different oils (FIG. 2, Table 2). An excess amount of the drug is added in the solutions after water had been added. The vials is shaken over a 72 hour period. The solutions is centrifuged and filtered at various time intervals prior to analysis of the samples by HPLC. The drug solubility ranged from 300 mcg/ml to 600 mcg/g. Alternative oils are also explored (Table 3).
The concentration was ˜519 mcg/ml in a similar composition where PBS was replaced with water. To achieve a concentration of exactly 500 mcg/ml, roughly 5 mg of the drug was weighed and added to a mixture of 2 g of SOLUTOL® HS-15 and 0.5 g of MIGLYOL® 812, that was previously mixed using a magnetic stir bar. After the drug was dissolved in the pre-concentrate, 7.5 g of distilled water was added to the above mix to formulate a microemulsion of mometasone furoate.

[2] = MF solubility in cyclodextrin solutions; conditions: 3 mM citrate buffer pH 4.5
Protocol: Compositions of mometasone furoate 6 mg/ml were prepared in duplicate with a 0.05, […], and 0.2 M of four different cyclodextrins: an unsubstituted gamma cyclodextrin, a sulfobutyl ether (SBE) beta cyclodextrin (Captisol), and two substituted SBE gamma cyclodextrins. Only 0.05 and 0.1M cyclodextrins were evaluated for the unsubstituted gamma cyclodextrin. All compositions were prepared in a 3 mM citrate buffer at a pH of 4.5. The compositions were placed on a roller mixer (Stuart Scientific SRT233 rpm rise/fall 16 mm) protected from light and mixed for about three days. After the three day equilibration, the compositions were filtered using a 0.22 micrometer PVDF syringe filter and analyzed by HPLC.

[3] = Effect of additives on MF solubility in 0.2 M Captisol solution; conditions: aqueous with cosolvent or surfactant or cyclodextrin
Protocol: A stock solution of 0.2 M Captisol (SBE beta cyclodextrin) was prepared. Table 5 and FIG. 4 list the effect of various additives on the MF solubility of this solution: […]

[4] = Micellar solubility determination of MF in 10% surfactant solutions in water; conditions: for solubility: 10% w/w excipient solution in water, aqueous with cosolvent or surfactant or cyclodextrin, thermodynamic from solid
Protocol: To determine the solubility of MF in various solutions, various MF solutions are prepared by measuring each excipient into a beaker at a 10% w/w concentration. If needed, the excipients are melted using a water bath maintained at 65° C. for approximately 30 minutes. The composition is q.s. to 50 g with water and mixed with an overhead/lightening mixer. Approximately 50-60 mg of anhydrous mometasone furoate anhydrous is added into each mixture. The solutions are mixed at a low speed on a shaker (Eberbacher) for about 48 to about 72 hours. Approximately 20 mL of each suspension are removed and centrifuged at 1200 rpm for 12 minutes. Approximately 5 mL of the supernatant is filtered using a 0.22 μm syringe filter. A 1 mL sample is taken from each filtered sample, diluted, and assayed using an HPLC.

[5] = MF solubility in cyclodextrin solutions; conditions: 3 mM citrate buffer pH 4.5; remark: listed apart in the source
[6] = Microemulsion equilibrium solubility determination of mometasone furoate; conditions: POLOXAMER 407-based microemulsion, aqueous with cosolvent or surfactant or cyclodextrin, thermodynamic from solid, microemulsion: ethyl laurate 5% w/w, POLOXAMER 407 10% w/w; read-out: MF Solubility
[7] = anhydrous MF, 10% w/w CREMOPHOR RH 40 (polyoxyl 40 hydrogenated castor oil) in water
[8] = anhydrous MF, 10% w/w SOLUTOL HS 15 (polyethylene glycol 660-12 hydroxystearate) in water
[9] = anhydrous MF, 10% w/w TWEEN 80 (polysorbate 80) in water

concentration of mometasone furoate achieved ([1]; 20% w/w SOLUTOL HS-15, 75% phosphate buffer system (PBS)): 538 µg/mL | concentration of mometasone furoate achieved ([1]; 20% w/w SOLUTOL HS-15, PBS replaced with water): ~519 µg/mL | solubility at 72 h ([1]; 20% SOLUTOL HS-15 microemulsions with varying amounts of different oils, 72 hour shaking, read-out: drug solubility (equilibrium)): 300 to 600 µg/mL (≈ 575 to 1150 µM) | solubility at 72 h ([1]; microemulsion Example 1: MIGLYOL 812 4% w/w, SOLUTOL HS 15 20% w/w, read-out: Solubilized MF): 502 µg/mL (≈ 963 µM) | solubility at 72 h ([1]; microemulsion Example 2: MIGLYOL 812 5% w/w, SOLUTOL HS 15 20% w/w, read-out: Solubilized MF): 538 µg/mL (≈ 1030 µM) | solubility at 72 h ([1]; microemulsion Example 4: MIGLYOL 840 4% w/w, SOLUTOL HS 15 20% w/w, read-out: Solubilized MF): 540 µg/mL (≈ 1040 µM) | solubility at 72 h ([1]; microemulsion Example 5: CAPRYOL 3% w/w, SOLUTOL HS 15 20% w/w, read-out: Solubilized MF): 422 µg/mL (≈ 809 µM) | solubility at 72 h ([1]; microemulsion Example 6: corn oil 3% w/w, SOLUTOL HS 15 20% w/w, read-out: Solubilized MF): 408 µg/mL (≈ 782 µM) | solubility at 72 h ([1]; microemulsion Example 7: oleic acid 2% w/w, SOLUTOL HS 15 20% w/w, read-out: Solubilized MF): 323 µg/mL (≈ 619 µM) | solubility at 72 h ([1]; microemulsion Example 8: soybean oil 1% w/w, SOLUTOL HS 15 20% w/w, read-out: Solubilized MF): 375 µg/mL (≈ 719 µM) | solubility at 72 h ([1]; microemulsion Example 9: soybean oil 2% w/w, SOLUTOL HS 15 20% w/w, read-out: Solubilized MF): 397 µg/mL (≈ 761 µM) | solubility at 72 h ([1]; microemulsion: ethyl laurate 5% w/w, polyethylene glycol 660-12 hydroxystearate 20% w/w, read-out: MF Solubility): 540 µg/mL (≈ 1040 µM) | drug concentration determined by HPLC ([1]; about 5 mg drug dissolved in 2 g SOLUTOL HS-15 + 0.5 g MIGLYOL 812, then 7.5 g distilled water, target 500 mcg/ml): 500 µg/mL | Concentration of MF in solutions with cyclodextrins ([2]; Captisol (SBE beta-CD) 0.05M, three day equilibration): 84 µg/mL | Concentration of MF in solutions with cyclodextrins ([2]; Captisol (SBE beta-CD) 0.2M): 261 µg/mL | Concentration of MF in solutions with cyclodextrins ([2]; SBE(6.1) gamma-CD 0.05M): 262 µg/mL | Concentration of MF in solutions with cyclodextrins ([2]; SBE(6.1) gamma-CD 0.2M): 1840 µg/mL | Concentration of MF in solutions with cyclodextrins ([2]; SBE(6.2) gamma-CD 0.05M): 250 µg/mL | Concentration of MF in solutions with cyclodextrins ([2]; SBE(6.2) gamma-CD 0.2M): 1940 µg/mL | Concentration of MF in solutions with cyclodextrins ([2]; unsubstituted gamma-CD 0.05M): 117 µg/mL | Concentration of MF in solutions with cyclodextrins ([2]; unsubstituted gamma-CD 0.1M): 249 µg/mL | solubility ([3]; 0.2 M Captisol + 0.01% w/v Polysorbate 80): 235 µg/mL | solubility ([3]; 0.2 M Captisol + 0.02% w/v Benzalkonium Chloride): 243 µg/mL | solubility ([3]; 0.2 M Captisol + 0.1% w/v HPMC): 258 µg/mL | solubility ([3]; 0.2 M Captisol + 0.1% w/v Na-CMC): 242 µg/mL | solubility ([3]; 0.2 M Captisol + 0.1% w/v PVP-30): 290 µg/mL | solubility ([3]; 0.2 M Captisol + 1% v/v EtOH): 236 µg/mL | solubility ([3]; 0.2 M Captisol + 2.1% w/v Glycerin): 220 µg/mL | solubility ([3]; 0.2 M Captisol + 10% v/v EtOH): 121 µg/mL | solubility ([3]; 0.2 M Captisol + 10% w/v Propylene Glycol): 107 µg/mL | solubility ([4]; 10% Vitamin E TPGS in water): ~500 µg/mL (≈ 959 µM) | solubility [4, 7]: 180 to 200 µg/mL (≈ 345 to 384 µM) | solubility ([4]; anhydrous MF, 10% w/w LUTROL F127 (poloxamer 407) in water): 27 µg/mL (≈ 51.8 µM) | solubility [4, 8]: 180 to 200 µg/mL (≈ 345 to 384 µM) | solubility [4, 9]: 180 to 200 µg/mL (≈ 345 to 384 µM) | solubility ([4]; anhydrous MF, 10% w/w Vitamin E TPGS (d-α tocopheryl PEG 1000 succinate) in water): 499 µg/mL (≈ 957 µM) | solubility ([4]; solutions with 10% polyoxamers): < 30 µg/mL | solubility ([4]; solutions with 10% polyvinylpyrrolidones): < 30 µg/mL | MF Solubility [4, 7]: 189 µg/mL | MF Solubility [4, 8]: 184 µg/mL | MF Solubility [4, 9]: 199 µg/mL | Concentration of MF in solutions with cyclodextrins ([5]; Captisol (SBE beta-CD) 0.1M): 152 µg/mL | Concentration of MF in solutions with cyclodextrins ([5]; SBE(6.1) gamma-CD 0.1M): 626 µg/mL | Concentration of MF in solutions with cyclodextrins ([5]; SBE(6.2) gamma-CD 0.1M): 569 µg/mL | solubility at 72 h [6]: 90 µg/mL (≈ 173 µM)
SMILES: C[C@@H]1C[C@H]2[C@@H]3CCC4=CC(=O)C=C[C@]4(C)[C@@]3(Cl)[C@@H](O)C[C@]2(C)[C@@]1(OC(=O)c1ccco1)C(=O)CCl [MF, mometasone furoate]
